Data taken from patent publication US11287431B2, “Method of testing for pulmonary hypertension” (TOHOKU UNIVERSITY, priority 2014, dated 2022).

Test system: pulmonary artery smooth muscle cells (PASMC) in idiopathic pulmonary arterial hypertension (IPAH) patients
Assay: Selenoprotein P protein secretion by IPAH-PASMC at hypoxia, western blot of whole cell lysates and conditioned medium
Format: cell-based, human
Settings: IPAH-PASMC cultured 24 hours at hypoxia (oxygen concentration: 2%) in the presence of fasudil (hydroxyfasudil concentration: 10 μM), versus normoxia and hypoxia alone
Text: The response of pulmonary artery smooth muscle cells (PASMC) in idiopathic pulmonary arterial hypertension (IPAH) patients (hereinafter also referred to as IPAH-PASMC) to hypoxia stimulation was observed.
Primary cell lines were established from pulmonary vascular smooth muscle in idiopathic pulmonary arterial hypertension patients, in accordance with the following document: Ogawa A, Nakamura K, Matsubara H, Fujio H, Ikeda T, Kobayashi K, Miyazaki I, Asanuma M, Miyaji K, Miura D, Kusano K F, Date H, Ohe T, Circulation, 2005; 112: 1806-1812. The pulmonary vascular smooth muscle in idiopathic pulmonary arterial hypertension patients was isolated from pulmonary arteries having an outer diameter of 1.5 mm or less.
IPAH-PASMC was cultured in D-MEM medium supplemented by 10% FBS (fetal bovine serum) at 37° C. under constant temperature and constant humidity conditions at 95% air and 5% CO2 in accordance with a usual method. In this test, passage 4 to 7 cells at a confluence of 70 to 80% were used. […]
After culturing, whole cell lysates and a conditioned medium were prepared for each sample, and selenoprotein P protein was detected by western blot analysis.

SMILES: O=S(=O)(c1cccc2cnccc12)N1CCCNCC1 [fasudil]
- extracellular secretion of selenoprotein P protein (into the medium): enhanced secretion of selenoprotein P protein was not observed
